Measured values as given in patent US11149021B2, “N-(azaaryl)cyclolactam-1-carboxamide derivative, preparation method therefor, and use thereof” (Abbisko Therapeutics Co., Ltd., priority 2017, dated 2021).
Like-named read-outs stand apart in the source and are kept apart here.

Assays:
[1] = test system: M-07e human cytomegalic leukemia cells; assay: CSF-1R-related cell proliferation experiment, KIT (Cell Titer Glo); format: cell-based; settings: 72 h, read-out: Cytological experiment KIT IC50 (nM)
Protocol: (§4) Functional effects of compounds on the proliferation of several cell lines were evaluated by Cell Titer Glo (CTG) studies in the present invention, and effects of the compounds on the proliferation of different cells were evaluated to determine the selectivity of the compounds. […] No. CBP60115) were cultured in an incubator under conditions of RPM11640 (Gibco, cat. […] No. CBP60522) were cultured in an incubator under conditions of IMDM (Invitrogen, cat. […] Since ATP is an index for viable cell metabolism, CTG (Promega, #G7573) reagent is a homogeneous detection method for detecting the number of viable cells in the culture by quantifying ATP. Therefore, compound-mediated inhibition for cell proliferation/survival was evaluated by quantifying ATP content in cells, and the specific experimental process was as follows.

[2] = test system: M-NFS-60 mouse myeloid leukemia lymphocytes; assay: CSF-1R cell proliferation study (Cell Titer Glo); format: cell-based; settings: Lymphocyte, 72 h;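 also: M-CSF-driven proliferation, viable cells quantified as ATP by luminescence, compounds tested as 3-fold serial dilutions, values from four-parameter curve fits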
Protocol: Functional effects of compounds on cell proliferation were evaluated by using Cell Titer Glo (CTG) study in the present invention. […] Since ATP is an index for viable cell metabolism, CTG (Promega, #G7573) reagent is a homogeneous detection method for detecting the number of viable cells in the culture by quantifying ATP. Therefore, compound-mediated inhibition for cell proliferation/survival was evaluated by quantifying ATP content in cells, and the specific experimental process was as follows:
3. 10 μL of culture medium containing M-CSF with 10-fold of the final concentration was then added to each well;
4. dosage effect was evaluated by testing the 3-fold serial dilutions of the compound;
5. after the cells were incubated for 3 days at 37° C. and 5% CO2, the inhibition on cell survival was quantified after 50 μL of CTG was added and the luminescence assay was performed;
6. the compound concentration leading to half maximal inhibitory (IC50) and the compound concentration leading to absolute half maximal inhibitory (Absolute IC50) was measured by a plate reader (M1000, Tecan) and a four-parameter curve fit in Graphpad Prism 7.

[3] = target: T1, CSF-1R (Homo sapiens, UniProt P07333); assay: CSF-1R in vitro biochemical kinase study (ADP-Glo assay)
T1 construct: 3.95 nM of CSF-1R, 500 μM of ATP

[4] = test system: NCI-H1703 human non-small cell lung squamous carcinoma cells; assay: CSF-1R-related cell proliferation experiment, PDGFRA (Cell Titer Glo); format: cell-based; settings: NCI-H1703, 72 h, read-out: Cytological experiment PDGERA IC50 (nM)
Protocol: as §4

[5] = test system: MV-4-11 human acute monocytic leukemia cells; assay: CSF-1R-related cell proliferation experiment, FLT3 (Cell Titer Glo); format: cell-based; settings: MV4-11, 72 h, read-out: Cytological experiment FLT3 IC50 (nM)
Protocol: as §4

[6] = target: KIT (Homo sapiens, UniProt P10721); assay: KIT in vitro biochemical kinase study (Caliper EZ Reader); settings: * = average of multiple tests; read-out: Enzymatic experiment KIT IC50
Protocol: (§1) 8. the compound IC50 value was measured by using a plate reader (Tecan, M1000) and a four-parameter curve was generated in Graphpad Prism. The enzymatic activities of compounds in the specific embodiments are shown in Table 1. • B. KIT/PDGFRA in vitro biochemical kinase study • 1. Preparation of 1-fold kinase buffer and stop solution • 1.1. 1-fold kinase buffer: 50 mM HEPES, pH 7.5, 0.0015% Brij-35. • 1.2 stop solution: 100 mM HEPES, pH 7.5, 0.015% Brij-35, 0.2% Coating Reagent #3, 50 mM EDTA • 2 Preparation of compound solution • 2.1 Dilution of compound solution • 1) The final concentration of the compound solution was 40 μM, and the concentration of the prepared stock solution was 50 times of the final concentration, i.e., 2 mM. • 2) 80 μL of 100% DMSO was added to the second well of a 96-well plate, and then 20 μL of 10 mM compound solution was added to obtain 2 mM compound solution. 60 μL of 100% DMSO was added to other wells. 20 μL solution was taken from the second well and added to the third well, which was diluted by 4 times. This serial 4-time dilution was conducted in sequence for the total of 10 concentration. • 2.2 5-fold compound solution transferred to a reaction plate • 1) 10 μL solution was taken from each well of the above 96-well plate and added to another 96-well plate, and 90 µl of kinase buffer was added in each well of new plate. • 2) 5 μL solution was taken from the above 96-well plate and added to a 384-well reaction plate. • 2.3 Kinase reaction • 1) KIT/PDGFRA kinase was added to the 1-fold kinase buffer solution to obtain a 2.5-fold kinase solution. • 2) FAM-labeled polypeptide and ATP were added to the 1-fold kinase buffer solution to obtain a 2.5-fold substrate solution. • 3) 10 μL of 2.5-fold kinase solution was added to the 384-well reaction plate, which already contained 5 μL of 5-fold compound in 10% DMSO. […] Percent inhibition=(max-conversion)/(max-min)×100
(§2) 3) The IC50 value was fit with XLFit excel add-in version 5.4.0,8: Fitting formula: Y=Bottom+(Top-Bottom)/(1+(IC50/X)^HillSlope).
(§3) CSF-1R cell proliferation study

[7] = target: PDGFRA (Homo sapiens, UniProt P16234); assay: PDGFRA in vitro biochemical kinase study (Caliper EZ Reader); settings: * = average of multiple tests; read-out: Enzymatic experiment PDGFRA IC50
Protocol: as §1, §2, §3

[8] = read-out: Cytological experiment CS1-1R Absolute IC50 (nM)
[9] = read-out: Cytological experiment CSF-1R IC50 (nM)

Sequence of KIT (P10721 26-976): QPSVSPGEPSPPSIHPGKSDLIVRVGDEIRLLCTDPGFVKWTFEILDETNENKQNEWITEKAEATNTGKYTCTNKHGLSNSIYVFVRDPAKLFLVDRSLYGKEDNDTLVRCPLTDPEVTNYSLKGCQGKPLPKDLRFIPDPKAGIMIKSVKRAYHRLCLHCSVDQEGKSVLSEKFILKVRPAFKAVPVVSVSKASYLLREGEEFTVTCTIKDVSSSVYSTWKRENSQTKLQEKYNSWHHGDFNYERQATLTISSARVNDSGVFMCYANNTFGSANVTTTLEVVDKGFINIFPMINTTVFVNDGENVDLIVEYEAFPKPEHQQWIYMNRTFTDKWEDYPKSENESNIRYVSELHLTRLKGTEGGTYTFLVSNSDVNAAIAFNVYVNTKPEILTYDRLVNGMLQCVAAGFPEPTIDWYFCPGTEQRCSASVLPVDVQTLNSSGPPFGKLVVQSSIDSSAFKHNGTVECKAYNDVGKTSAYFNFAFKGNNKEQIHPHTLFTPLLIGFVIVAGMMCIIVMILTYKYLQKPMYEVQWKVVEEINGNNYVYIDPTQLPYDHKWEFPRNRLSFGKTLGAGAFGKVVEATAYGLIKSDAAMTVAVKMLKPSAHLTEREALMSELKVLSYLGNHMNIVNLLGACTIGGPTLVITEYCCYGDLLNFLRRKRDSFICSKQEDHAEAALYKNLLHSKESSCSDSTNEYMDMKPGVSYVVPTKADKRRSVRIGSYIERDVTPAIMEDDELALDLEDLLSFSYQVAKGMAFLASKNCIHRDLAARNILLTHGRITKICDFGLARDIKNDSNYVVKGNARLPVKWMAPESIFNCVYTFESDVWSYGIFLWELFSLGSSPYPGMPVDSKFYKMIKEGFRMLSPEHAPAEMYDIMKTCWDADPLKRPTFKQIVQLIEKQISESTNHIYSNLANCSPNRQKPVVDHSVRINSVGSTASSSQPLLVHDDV
T1 sequence (P07333 20-972): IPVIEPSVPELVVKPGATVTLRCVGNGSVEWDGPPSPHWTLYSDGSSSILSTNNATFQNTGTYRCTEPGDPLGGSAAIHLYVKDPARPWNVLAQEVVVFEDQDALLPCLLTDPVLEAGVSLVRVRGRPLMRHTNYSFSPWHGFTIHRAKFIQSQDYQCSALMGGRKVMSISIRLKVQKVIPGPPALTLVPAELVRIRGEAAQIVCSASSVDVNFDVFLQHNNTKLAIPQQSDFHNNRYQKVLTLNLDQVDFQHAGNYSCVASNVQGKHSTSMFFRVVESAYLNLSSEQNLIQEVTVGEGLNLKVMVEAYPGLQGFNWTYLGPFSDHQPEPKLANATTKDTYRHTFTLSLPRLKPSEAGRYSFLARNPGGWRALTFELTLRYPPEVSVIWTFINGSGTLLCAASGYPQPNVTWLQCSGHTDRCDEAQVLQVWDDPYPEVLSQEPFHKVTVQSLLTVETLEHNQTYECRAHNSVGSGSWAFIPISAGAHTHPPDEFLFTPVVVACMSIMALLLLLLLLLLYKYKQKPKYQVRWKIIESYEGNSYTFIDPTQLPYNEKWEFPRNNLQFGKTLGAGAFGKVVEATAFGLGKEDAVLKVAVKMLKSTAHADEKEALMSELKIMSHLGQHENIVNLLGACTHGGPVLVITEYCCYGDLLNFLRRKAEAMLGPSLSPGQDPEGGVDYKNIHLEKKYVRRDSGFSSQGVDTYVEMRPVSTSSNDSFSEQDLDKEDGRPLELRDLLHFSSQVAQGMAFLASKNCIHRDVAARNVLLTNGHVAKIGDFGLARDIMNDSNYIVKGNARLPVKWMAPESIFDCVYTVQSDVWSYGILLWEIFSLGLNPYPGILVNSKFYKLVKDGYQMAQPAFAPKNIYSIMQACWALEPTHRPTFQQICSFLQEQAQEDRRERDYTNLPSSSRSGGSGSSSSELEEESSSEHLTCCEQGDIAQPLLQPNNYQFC
Sequence of PDGFRA (P16234 24-1089): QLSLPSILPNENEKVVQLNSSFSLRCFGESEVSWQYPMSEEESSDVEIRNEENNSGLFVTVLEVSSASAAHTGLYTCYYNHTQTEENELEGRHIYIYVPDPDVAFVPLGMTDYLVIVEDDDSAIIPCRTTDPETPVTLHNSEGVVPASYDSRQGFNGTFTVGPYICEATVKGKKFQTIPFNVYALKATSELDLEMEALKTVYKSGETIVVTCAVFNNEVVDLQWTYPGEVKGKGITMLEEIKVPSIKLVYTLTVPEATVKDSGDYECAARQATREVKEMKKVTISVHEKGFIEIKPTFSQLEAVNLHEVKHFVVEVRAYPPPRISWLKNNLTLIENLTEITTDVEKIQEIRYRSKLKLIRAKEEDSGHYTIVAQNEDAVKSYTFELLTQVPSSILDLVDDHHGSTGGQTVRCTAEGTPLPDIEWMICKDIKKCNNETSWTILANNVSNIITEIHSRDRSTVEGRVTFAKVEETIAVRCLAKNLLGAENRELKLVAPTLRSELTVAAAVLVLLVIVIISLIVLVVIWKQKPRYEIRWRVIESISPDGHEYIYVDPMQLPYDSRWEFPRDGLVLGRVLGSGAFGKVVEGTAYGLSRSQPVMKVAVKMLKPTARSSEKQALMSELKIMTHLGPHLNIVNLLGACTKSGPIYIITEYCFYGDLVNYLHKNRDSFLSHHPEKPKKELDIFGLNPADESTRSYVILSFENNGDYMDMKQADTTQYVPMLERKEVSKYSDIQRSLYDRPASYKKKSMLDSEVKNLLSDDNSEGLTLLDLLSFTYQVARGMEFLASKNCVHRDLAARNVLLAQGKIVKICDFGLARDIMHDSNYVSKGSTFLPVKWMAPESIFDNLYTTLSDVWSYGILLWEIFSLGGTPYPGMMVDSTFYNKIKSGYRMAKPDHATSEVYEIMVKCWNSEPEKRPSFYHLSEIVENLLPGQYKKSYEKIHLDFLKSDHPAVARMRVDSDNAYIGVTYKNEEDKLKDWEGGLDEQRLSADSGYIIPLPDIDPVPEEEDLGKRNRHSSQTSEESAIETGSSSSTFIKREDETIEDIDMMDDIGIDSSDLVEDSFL

| Structure (SMILES) | IC50 [1] [nM] | IC50 [2, 8] [nM] | IC50 [2, 9] [nM] | IC50 [3] [nM] | IC50 [4] [nM] | IC50 [5] [nM] | IC50 [6] [nM] | IC50 [7] [nM] |
| --- | --- | --- | --- | --- | --- | --- | --- | --- |
| Cc1nc(NC(=O)N2CCC(C)(C)C2=O)ccc1Cc1ccnc(-c2cnn(C)c2)c1 [Example 21, 3,3-dimethyl-N-(6-methyl-5-((2-(1-methyl-1H-pyrazol-4-yl)pyridin-4-yl)methyl)pyridin-2-yl)-2-oxopyrrolidine-1-carboxamide] | 727 | 31.2 | 45.2 | 59.9 | > 6000 | > 2000 | – | – |
| Cc1nc(NC(=O)N2CCOC(C)(C)C2=O)ccc1Oc1ccnc(-c2cnn(C)c2)c1 [Example 29, 2,2-dimethyl-N-(6-methyl-5-((2-(1-methyl-1H-pyrazol-4-yl)pyridin-4-yl)oxy)pyridin-2-yl)-3-oxomorpholine-4-carboxamide] | > 2000 | 75.1 | 76.3 | 52.2 | > 6000 | > 18000 | 92.5 | 931 |
| CCC1(CC)CCN(C(=O)Nc2ccc(Oc3ccnc(-c4cnn(C)c4)c3)c(C)n2)C1=O [Example 34, 3,3-diethyl-N-(6-methyl-5-((2-(1-methyl-1H-pyrazol-4-yl)pyridin-4-yl)oxy)pyridin-2-yl)-2-oxopyrrolidine-1-carboxamide] | 667 | 21.5 | 21.3 | 51.7 | 1330 | > 2000 | – | – |
| Cc1nc(NC(=O)N2CCC(C)(C)C2=O)ccc1Oc1ccnc(-c2cnn(C3CC3)c2)c1 [Example 15, N-(5-((2-(1-cyclopropyl-1H-pyrazol-4-yl)pyridin-4-yl)oxy)-6-methylpyridin-2-yl)-3,3-dimethyl-2-oxopyrrolidine-1-carboxamide] | > 1120 | 38.7 | 64.4 | 20.7 | > 6000 | > 6000 | – | – |
| Cn1cc(-c2cc(Oc3ccc(NC(=O)N4CCC(C)(C)C4=O)nc3)ccn2)cn1 [Example 2, 3,3-dimethyl-N-(5-((2-(1-methyl-1H-pyrazol-4-yl)pyridin-4-yl)oxy)pyridin-2-yl)-2-oxopyrrolidine-1-carboxamide] | 158 | 23.1 | 26.3 | 14.4 | 18000 | 6000 | 59.8 | 435 |
| Cc1nc(NC(=O)N2CCC(C)(C)C2=O)ccc1Oc1ccnc(-c2cnn(C)c2)c1 [Example 1, 3,3-dimethyl-N-(6-methyl-5-((2-(1-methyl-1H-pyrazol-4-yl)pyridin-4-yl)oxy)pyridin-2-yl)-2-oxopyrrolidine-1-carboxamide] | 1060 | 24.1 | 25 | 19.5 | 2870 | 5560 | 77 | 1400 |
| Cc1nc(NC(=O)N2CCC(C)(O)C2=O)ccc1Oc1ccnc(-c2cnn(C)c2)c1 (stereo not drawn) [Example 41, 3-hydroxy-3-methyl-N-(6-methyl-5-((2-(1-methyl-1H-pyrazol-4-yl)pyridin-4-yl)oxy)pyridin-2-yl)-2-oxopyrrolidine-1-carboxamide] | > 18000 | > 2000 | > 2000 | 445 | > 18000 | > 18000 | – | – |
| Cc1nc(NC(=O)N2CCCC(C)(C)C2=O)ccc1Oc1ccnc(-c2cnn(C)c2)c1 [Example 28, 3,3-dimethyl-N-(6-methyl-5-((2-(1-methyl-1H-pyrazol-4-yl)pyridin-4-yl)oxy)pyridin-2-yl)-2-oxopiperidine-1-carboxamide] | 940 | 31.9 | 35.7 | 24.2 | 9530 | 10000 | 8.48 | 107 |
| Cc1nc(NC(=O)N2CCC(C)(C)C2=O)ccc1Oc1ccnc(-c2cnn(CCO)c2)c1 [Example 10, N-(5-((2-(1-(2-hydroxyethyl)-1H-pyrazol-4-yl)pyridin-4-yl)oxy)-6-methylpyridin-2-yl)-3,3-dimethyl-2-oxopyrrolidine-1-carboxamide] | 4900 | 140 | 104 | 56.3 | 6000 | 18000 | 476 | 13100 |
| CCC1(C)CCN(C(=O)Nc2ccc(Oc3ccnc(-c4cnn(C)c4)c3)c(C)n2)C1=O (stereo not drawn) [Example 33, 3-ethyl-3-methyl-N-(6-methyl-5-((2-(1-methyl-1H-pyrazol-4-yl)pyridin-4-yl)oxy)pyridin-2-yl)-2-oxopyrrolidine-1-carboxamide] | 535 | 40.3 | 41.9 | 19.9 | > 6000 | > 6000 | – | – |
| [2H]C([2H])([2H])n1cc(-c2cc(Oc3ccc(NC(=O)N4CCC(C)(C)C4=O)nc3C)ccn2)cn1 [Example 11, 3,3-dimethyl-N-(6-methyl-5-((2-(1-(methyl-d3)-1H-pyrazol-4-yl)pyridin-4-yl)oxy)pyridin-2-yl)-2-oxopyrrolidine-1-carboxamide] | > 1120 | 35.5 | 43.5 | 21.4 | > 2000 | > 6000 | – | – |
| CCn1cc(-c2cc(Oc3ccc(NC(=O)N4CCC(C)(C)C4=O)nc3C)ccn2)cn1 [Example 6, N-(5-((2-(1-ethyl-1H-pyrazol-4-yl)pyridin-4-yl)oxy)-6-methylpyridin-2-yl)-3,3-dimethyl-2-oxopyrrolidine-1-carboxamide] | 1670 | 36.6 | 42.9 | 25.8 | 6000 | 9000 | 167 | 2450 |
| Cc1nc(NC(=O)N2CCC3(CCCC3)C2=O)ccc1Oc1ccnc(-c2cnn(C)c2)c1 [Example 31, N-(6-methyl-5-((2-(1-methyl-1H-pyrazol-4-yl)pyridin-4-yl)oxy)pyridin-2-yl)-1-oxo-2-azaspiro[4.4]nonane-2-carboxamide] | 190 | 19.4 | 19.2 | 8.45 | 561 | 2980 | – | – |
